As a reminder, the Kd is a measure of binding affinity in units of concentration. Higher therefore signals weaker binding.

Data on six compounds can be found in patent US9249306B2, “Quenched dendrimeric dyes for florescence detection” (Carnegie Mellon University, priority 2009, dated 2016).

Read-outs that look alike come from different tables or passages of the source.

Data set [1] relates to L5-MG E52D. It counts as physicochemical, human. As to conditions: soluble dyedron/L5-MG E52D complex.
The target in data set [2] is L5-MG E52D. It is filed as binding, human. As to conditions: yeast cell surface displayed L5-MG E52D; PBS+. The protocol:
Microplate fluorometry was carried out on a Tecan Safire2 microplate reader using 96 well microplates with 5×10^6 yeast cells/well.
Yeast JAR200 cells expressing L5-MG E52D were suspended at 10^7 cells/ml in modified PBS+ buffer in the presence of the indicated dyedron concentrations. Fluorescence was read on a Safire2 plate fluorimeter. KD values reported in Table 2 were determined using GraphPad Prism 4 software fits to the one site hyperbolic binding curves shown here. Under these conditions, KD values below 1 nM cannot be determined precisely. Plateau fluorescence levels correspond closely to the relative fluorescence signals seen in flow cytometric analyses using 635 nm laser excitation of the MG band (Table 3).

Data set [3] deals with yeast strain JAR200 expressing L5-MG E52D scFv on the cell surface. Briefly: Flow cytometric quantification of dyedron binding to yeast displayed L5-MG E52D. It is filed as cell-based, Saccharomyces cerevisiae. The note with it: for increase in specific brightness (factor), 532 nm vs 635 nm staining ratio / 532 laser median / 635 laser median / 532 laser mean / 635 laser mean: 300 nM dyedron; for increase in specific brightness (factor), 532 nm vs 635 nm staining ratio: live yeast; for 532 laser median / 635 laser median / 532 laser mean / 635 laser mean: 675/50 bandpass, JAR200 L5-MG E52D; for 532 laser mean / 635 laser mean: gated positive population; for FACS532/FACS635: median of stained population - median of unstained control. On the procedure: (§1) FIG. 15. Flow cytometric analysis of dyedron-labeled yeast by exciting donor (blue) or acceptor (red). Saccharomyces cerevisiae cells expressing L5-MG E52D on their surface were analyzed essentially as described in WO 08/092,041 and in Szent-Gyorgyi, C.; Schmidt, B. F.; Creeger, Y.; Fisher, G. W.; Zakel, K. L.; Adler, S.; Fitzpatrick, J. A. J.; Woolford, C. A.; Yan, Q.; Vasilev, K. V.; Berget, P. B.; Bruchez, M. P.; Jarvik, J. W.; Waggoner, A. Nature Biotechnology 2008, 26, 235-240. Two aliquots of each stained population and an unstained control (U) were respectively analyzed, exciting at 532 nm (donor) or 635 nm (acceptor), and collecting emission through a 675/50 nm bandpass (BP) filter. Each analysis comprised 100,000 cells. Stained samples contain a sub-population of non-fluorescent cells due to loss of scFv-encoding plasmid, whose signal corresponds to that of unstained samples (marked by thin lines). Controls show virtually no fluorescence generated by dyedrons on cell surfaces in the absence of expressed FAP (Table 3). Unstained cells excited at 532 nm are relatively brighter than those excited at 635 nm due to higher cellular autofluorescence at the shorter wavelength. Doublet stained peaks correspond to unbudded and budded yeast cells, and are typical for such experiments. Separation of the positive cells from negative cells remains essentially constant under 635 nm excitation but increases in proportion to the number of Cy3 donors under 532 nm excitation. The enhanced excitation in the dyedrons results in increased sensitivity in the flow cytometer.
For orientation: In flow cytometry, cells or beads pass a laser one at a time.

Data set [4] has as its system L5-MG E52D. It counts as physicochemical, human. The note with it: soluble dyedron/L5-MG E52D complex; 620 nm excitation. On the procedure: Fluoromodules were assembled as above, and quantum yields based on the acceptor MG excitation band were determined as described using Cy5.18 as the calibration dye (Szent-Gyorgyi, C., et al., Nature Biotechnology 2008, 26, 235-240). Quantum yields determined with 620 nm excitation (Table 2) were essentially the same as unreported quantum yields determined with 590 nm excitation (<5% difference).

Data set [5] concerns L5-MG E52D. It counts as physicochemical, human. The note with it: bound to L5-MG E52D; for Relative quantum yield, 514 nm / Relative quantum yield, 532 nm / Relative quantum yield, 561 nm: normalized to 633 nm value; for Relative quantum yield, 633 nm: set to 1.00.
The test system of data set [6] is control strain JAR200 that does not express scFv. Briefly: Flow cytometry, control strain that does not express scFv. The note with it: 300 nM dyedron, 675/50 bandpass. It counts as cell-based, Saccharomyces cerevisiae. On the procedure:
as §1

Data set [7] in a line: Donor array fluorescence of Cy3-labeled cystamine core PAMAM dendrimers. It counts as physicochemical. The protocol: To test the impact of high loading on donor array fluorescence, two cystamine core PAMAM dendrimers (Gen2-16 NH2 and Gen3-32 NH2) were labeled with an excess of monoreactive Cy3-NHS ester. After removal of excess dye by gel filtration the resulting macromolecules were analyzed by electrophoresis, and found to have low net mobility. Because each Cy3 molecule carries one net negative charge, a fully modified dendron should have a net charge of −2. […] However, these conjugates allow for the assessment of the potential risk of donor quenching.

The test system of data set [8] is selected scFv. Briefly: Fluorescence activation of malachite green by selected scFv. The note with it: in buffer. It is filed as biochemical.
Experiment in data set [9]: not given
This is another data set of the same source.

Consider `CC[N+]1=C(/C=C/C=C2/N(CCCCCC(=O)NCC(CNC(=O)CCCCCN3/C(=C/C=C/C4=[N+](CC)c5ccc(S(=O)(=O)O)cc5C4(C)C)C(C)(C)c4cc(S(=O)(=O)[O-])ccc43)OCC(=O)NCCCOc3ccc(C(=C4C=CC(=[N+](C)C)C=C4)c4ccc(N(C)C)cc4)cc3)c3ccc(S(=O)(=O)[O-])cc3C2(C)C)C(C)(C)c2cc(S(=O)(=O)[O-])ccc21` (centres unmarked) [BCM], for which, in data set [1], the “εmax [M^−1cm^−1]” value is recorded as 290,000 M^−1cm^−1 and the “εmax [nm]” value worked out at 551 nm. The compound further came in with a Kd in data set [2] of 4 nM. In addition, in data set [3], the “increase in specific brightness (factor), 532 nm vs 635 nm staining ratio” value is about 3; the 532 laser median was 6912; the 635 laser median came to 2047; the 532 laser mean is 17894. In [3], the 635 laser mean stood at 5521 and the FACS532/FACS635 is recorded as 3.27. For the same compound, the “φMG (quantum yield for MG excitation peak)” value (shortened to “φMG”) in [4] turned out to be 0.047. Also, in data set [5], the “Relative quantum yield, 514 nm” value is on record as 0.92; the “Relative quantum yield, 532 nm” value worked out at 0.86; the “Relative quantum yield, 561 nm” value came to 1.31; the “Relative quantum yield, 633 nm” value is 1.00. In [6], the 532 laser mean was determined as 113, the 532 laser median amounted to 84, the 635 laser mean was 105 and the 635 laser median is listed as 64.
Regarding `CCN1/C(=C\C=C\C2=[N+](CCCCCC(=O)NCCNC(=O)CCCOc3ccc(C(=C4C=CC(=[N+](C)C)C=C4)c4ccc(N(C)C)cc4)cc3)c3ccc(S(=O)(=O)[O-])cc3C2(C)C)C(C)(C)c2cc(S(=O)(=O)[O-])ccc21` [CM, 1-{6-[(2-{[4-(4-{[4-(dimethylamino)phenyl][4-(dimethyliminio)cyclohexa-2,5-dien-1-ylidene]methyl}phenoxy)butanoyl]amino}ethyl)amino]-6-oxohexyl}-2-[(1E,3Z)-3-(1-ethyl-3,3-dimethyl-5-sulfonato-1,3-dihydro-2H-indol-2-ylidene)prop-1-en-1-yl]-3,3-dimethyl-3H-indolium-5-sulfonate], in [1], the “εmax [M^−1cm^−1]” value is 140,000 M^−1cm^−1 and the “εmax [nm]” value came out at 552 nm. In [2], the Kd is under 1 nM. Moreover, in data set [3], the “increase in specific brightness (factor), 532 nm vs 635 nm staining ratio” value was “about 2”; the 532 laser median amounted to 6170; the 635 laser median stood at 2793; the 532 laser mean is reported as 15946. Moreover, in data set [3], the 635 laser mean is 7455 and the FACS532/FACS635 is 2.17. In data set [4], the “φMG” value worked out at 0.057. In data set [5], the “Relative quantum yield, 514 nm” value came out at 1.24; the “Relative quantum yield, 532 nm” value amounted to 1.08; the “Relative quantum yield, 561 nm” value worked out at 1.41; the “Relative quantum yield, 633 nm” value is 1.00. In [6], this compound registered a 532 laser mean of 123, a 532 laser median of 95, a 635 laser mean of 108 and a 635 laser median of 65.
With `CCN1/C(=C\C=C\C2=[N+](CCCCCC(=O)O)c3ccc(S(=O)(=O)O)cc3C2(C)C)C(C)(C)c2cc(S(=O)(=O)[O-])ccc21` [Cy3], the “Estimated Diam. (nm)” value in data set [7] was 1.5 nm.
As for `CN(C)c1ccc(C(=C2C=CC(=[N+](C)C)C=C2)c2ccc(OCCCC(=O)NCCNC(=O)CCC(=O)NCCOCCOCCN)cc2)cc1` [M, malachite green diethyleneglycolamine], in data set [1], the “εmax [M^−1cm^−1]” value is listed as 79,000 M^−1cm^−1 and the “εmax [nm]” value is 642 nm. The compound further gave a Kd in data set [2] of under 1 nM. Further, in data set [3], the 532 laser median is 335, the 635 laser median was 2635, the 532 laser mean amounted to 435 and the 635 laser mean stood at 7089. In data set [3], this compound yielded an FACS532/FACS635 of 0.07. In data set [4], the “φMG” value is recorded as 0.055. Besides, in data set [5], the “Relative quantum yield, 561 nm” value was 1.44 and the “Relative quantum yield, 633 nm” value came to 1.00. In data set [6], this compound came in with a 532 laser mean of 111, a 532 laser median of 76, a 635 laser mean of 118 and a 635 laser median of 74. In addition, the extinction coefficient (PBS+) is 50,700 M^−1cm^−1. The extinction coefficient (ethanol/5% HAc) is recorded as 91,500 M^−1cm^−1.
As to `CN(C)c1ccc(C(=C2C=CC(=[N+](C)C)C=C2)c2ccccc2)cc1` [Malachite green], the “activation to fluorescent state (fold)” value in data set [8] is listed as > 15,000 fold.
For `CN(C)c1ccc(C(C#Cc2ccc(N(C)CCOCCCC(=O)O)cc2)=C2C=CC(=[N+](C)C)C=C2)cc1.[Cl-]` [acetylenic derivative of malachite green], the “quantum yield in water” value in [9] was at most 0.003.
